Key:
CCRF-CEM = experiment: NCI-60 one-dose screen, CCRF-CEM; assay type: cell-based; details: Homo sapiens, leukaemia, single dose 10 μM, read-out: Growth inhibition %
Procedure: (§1) Anti-proliferative effects of the counterparts 4a–g and 5a–g were screened against 60 human cancer cell lines, following the Developmental Therapeutics Program protocol, National Cancer Institute[35].
(§2) The anti-tumour activity of the fourteen synthesised congeners was investigated at the NCI against a panel of 60 cancer cell lines (NCI-60 Cell One-Dose Screen). The tested dibenzo[b,f]azepine derivatives were screened at a single dose level (10 μM), Table 1.

HL-60(TB) = experiment: NCI-60 one-dose screen, HL-60(TB); assay type: cell-based; details: Homo sapiens, leukaemia, single dose 10 μM, read-out: Growth inhibition %
Procedure: as §1, §2

K-562 = experiment: NCI-60 one-dose screen, K-562; assay type: cell-based; details: Homo sapiens, K562; K-562, leukaemia; single dose 10 μM; read-out: Growth inhibition %
Procedure: as §1, §2

MOLT-4 = experiment: NCI-60 one-dose screen, MOLT-4; assay type: cell-based; details: Homo sapiens; MOLT-4, leukaemia; single dose 10 μM; read-out: Growth inhibition %
Procedure: as §1, §2

EKVX = experiment: NCI-60 one-dose screen, EKVX; assay type: cell-based; details: Homo sapiens, non-small cell lung cancer, single dose 10 μM, read-out: Growth inhibition %
Procedure: as §1, §2

HOP-62 = experiment: NCI-60 one-dose screen, HOP-62; assay type: cell-based; details: Homo sapiens; HOP-62, non-small cell lung cancer; single dose 10 μM; read-out: Growth inhibition %
Procedure: as §1, §2

HOP-92 = experiment: NCI-60 one-dose screen, HOP-92; assay type: cell-based; details: Homo sapiens; HOP-92, non-small cell lung cancer; single dose 10 μM; read-out: Growth inhibition %
Procedure: as §1, §2

NCI-H23 = experiment: NCI-60 one-dose screen, NCI-H23; assay type: cell-based; details: Homo sapiens; NCI-H23, non-small cell lung cancer; single dose 10 μM; read-out: Growth inhibition %
Procedure: as §1, §2

NCI-H322M = experiment: NCI-60 one-dose screen, NCI-H322M; assay type: cell-based; details: Homo sapiens, non-small cell lung cancer, single dose 10 μM, read-out: Growth inhibition %
Procedure: as §1, §2

NCI-H460 = experiment: NCI-60 one-dose screen, NCI-H460; assay type: cell-based; details: Homo sapiens; NCI-H460, non-small cell lung cancer; single dose 10 μM; read-out: Growth inhibition %
Procedure: as §1, §2

NCI-H522 = experiment: NCI-60 one-dose screen, NCI-H522; assay type: cell-based; details: Homo sapiens; NCI-H522, non-small cell lung cancer; single dose 10 μM; read-out: Growth inhibition %
Procedure: as §1, §2

COLO 205 = experiment: NCI-60 one-dose screen, COLO 205; assay type: cell-based; details: Homo sapiens; COLO 205, colon cancer; single dose 10 μM; read-out: Growth inhibition %
Procedure: as §1, §2

HCT-15 = experiment: NCI-60 one-dose screen, HCT-15; assay type: cell-based; details: Homo sapiens; HCT-15, colon cancer; single dose 10 μM; read-out: Growth inhibition %
Procedure: as §1, §2

SF-295 = experiment: NCI-60 one-dose screen, SF-295; assay type: cell-based; details: Homo sapiens; SF-295, CNS cancer; single dose 10 μM; read-out: Growth inhibition %
Procedure: as §1, §2

SF-539 = experiment: NCI-60 one-dose screen, SF-539; assay type: cell-based; details: Homo sapiens; SF-539, CNS cancer; single dose 10 μM; read-out: Growth inhibition %
Procedure: as §1, §2

U251 = experiment: NCI-60 one-dose screen, U251; assay type: cell-based; details: Homo sapiens, U-251; U251, CNS cancer; single dose 10 μM; read-out: Growth inhibition %
Procedure: as §1, §2

LOX IMVI = experiment: NCI-60 one-dose screen, LOX IMVI; assay type: cell-based; details: Homo sapiens, melanoma, single dose 10 μM, read-out: Growth inhibition %
Procedure: as §1, §2

M14 = experiment: NCI-60 one-dose screen, M14; assay type: cell-based; details: Homo sapiens; M14, melanoma; single dose 10 μM; read-out: Growth inhibition %
Procedure: as §1, §2

SK-MEL-5 = experiment: NCI-60 one-dose screen, SK-MEL-5; assay type: cell-based; details: Homo sapiens; SK-MEL-5, melanoma; single dose 10 μM; read-out: Growth inhibition %
Procedure: as §1, §2

UACC-257 = experiment: NCI-60 one-dose screen, UACC-257; assay type: cell-based; details: Homo sapiens; UACC-257, melanoma; single dose 10 μM; read-out: Growth inhibition %
Procedure: as §1, §2

UACC-62 = experiment: NCI-60 one-dose screen, UACC-62; assay type: cell-based; details: Homo sapiens; UACC-62, melanoma; single dose 10 μM; read-out: Growth inhibition %
Procedure: as §1, §2

OVCAR-5 = experiment: NCI-60 one-dose screen, OVCAR-5; assay type: cell-based; details: Homo sapiens; OVCAR-5, ovarian cancer; single dose 10 μM; read-out: Growth inhibition %
Procedure: as §1, §2

OVCAR-8 = experiment: NCI-60 one-dose screen, OVCAR-8; assay type: cell-based; details: Homo sapiens; OVCAR-8, ovarian cancer; single dose 10 μM; read-out: Growth inhibition %
Procedure: as §1, §2

786-0 = experiment: NCI-60 one-dose screen, 786-0; assay type: cell-based; details: Homo sapiens; 786-0, renal cancer; single dose 10 μM; read-out: Growth inhibition %
Procedure: as §1, §2

A498 = experiment: NCI-60 one-dose screen, A498; assay type: cell-based; details: Homo sapiens; A498, renal cancer; single dose 10 μM; read-out: Growth inhibition %
Procedure: as §1, §2

ACHN = experiment: NCI-60 one-dose screen, ACHN; assay type: cell-based; details: Homo sapiens, renal cancer, single dose 10 μM, read-out: Growth inhibition %
Procedure: as §1, §2

RXF 393 = experiment: NCI-60 one-dose screen, RXF 393; assay type: cell-based; details: Homo sapiens; RXF 393, renal cancer; single dose 10 μM; read-out: Growth inhibition %
Procedure: as §1, §2

SN12C = experiment: NCI-60 one-dose screen, SN12C; assay type: cell-based; details: Homo sapiens, renal cancer, single dose 10 μM, read-out: Growth inhibition %
Procedure: as §1, §2

PC-3 = experiment: NCI-60 one-dose screen, PC-3; assay type: cell-based; details: Homo sapiens; PC-3, prostate cancer; single dose 10 μM; read-out: Growth inhibition %
Procedure: as §1, §2

MCF-7 = experiment: NCI-60 one-dose screen, MCF-7; assay type: cell-based; details: Homo sapiens, MCF7; MCF-7, breast cancer; single dose 10 μM; read-out: Growth inhibition %
Procedure: as §1, §2

MDA-MB-231-ATCC = experiment: NCI-60 one-dose screen, MDA-MB-231-ATCC; assay type: cell-based; details: Homo sapiens, breast cancer, single dose 10 μM, read-out: Growth inhibition %
Procedure: as §1, §2

HS 578 T = experiment: NCI-60 one-dose screen, HS 578 T; assay type: cell-based; details: Homo sapiens, breast cancer, single dose 10 μM, read-out: Growth inhibition %
Procedure: as §1, §2

T-47D = experiment: NCI-60 one-dose screen, T-47D; assay type: cell-based; details: Homo sapiens, T47D, breast cancer, single dose 10 μM, read-out: Growth inhibition %
Procedure: as §1, §2

MDA-MB-468 = experiment: NCI-60 one-dose screen, MDA-MB-468; assay type: cell-based; details: Homo sapiens; MDA-MB-468, breast cancer; single dose 10 μM; read-out: Growth inhibition %
Procedure: as §1, §2

SMILES	inhibition at 10 µM (CCRF-CEM) [%]	inhibition at 10 µM (HL-60(TB)) [%]	inhibition at 10 µM (K-562) [%]	inhibition at 10 µM (MOLT-4) [%]	inhibition at 10 µM (EKVX) [%]	inhibition at 10 µM (HOP-62) [%]	inhibition at 10 µM (HOP-92) [%]	inhibition at 10 µM (NCI-H23) [%]	inhibition at 10 µM (NCI-H322M) [%]	inhibition at 10 µM (NCI-H460) [%]	inhibition at 10 µM (NCI-H522) [%]	inhibition at 10 µM (COLO 205) [%]	inhibition at 10 µM (HCT-15) [%]	inhibition at 10 µM (SF-295) [%]	inhibition at 10 µM (SF-539) [%]	inhibition at 10 µM (U251) [%]	inhibition at 10 µM (LOX IMVI) [%]	inhibition at 10 µM (M14) [%]	inhibition at 10 µM (SK-MEL-5) [%]	inhibition at 10 µM (UACC-257) [%]	further results
Clc1ccc(-c2nnc(N3c4ccccc4C=Cc4ccccc43)o2)cc1 [Compound 5c, 2-(4-Chlorophenyl)-5-(5H-dibenzo[b,f]azepin-5-yl)-1,3,4-oxadiazole]	30.4	38.1	54	20.4	20.8	15.4	24	< 10	10.5	57.3	22.2	< 10	63.5	29.6	< 10	42.6	35.7	< 10	48	< 10	inhibition at 10 µM (UACC-62): 31.3%; inhibition at 10 µM (OVCAR-5): < 10%; inhibition at 10 µM (OVCAR-8): 24%; inhibition at 10 µM (786-0): < 10%; inhibition at 10 µM (A498): 12.9%; inhibition at 10 µM (ACHN): 15.5%; inhibition at 10 µM (RXF 393): 17.9%; inhibition at 10 µM (SN12C): 21.9%; inhibition at 10 µM (PC-3): 44.1%; inhibition at 10 µM (MCF-7): 35.6%; inhibition at 10 µM (MDA-MB-231-ATCC): 19.8%; inhibition at 10 µM (HS 578 T): < 10%; inhibition at 10 µM (T-47D): < 10%; inhibition at 10 µM (MDA-MB-468): 16.7%; melting point: 174 to 176 °C
Brc1ccc(-c2nnc(N3c4ccccc4C=Cc4ccccc43)o2)cc1 [Compound 5b, 2-(4-Bromophenyl)-5-(5H-dibenzo[b,f]azepin-5-yl)-1,3,4-oxadiazole]	37.3	34.6	54.5	35.6	27.6	22.7	33.5	< 10	< 10	63.5	26.3	15.4	66.5	30.4	17.2	47	38.8	< 10	53.2	< 10	inhibition at 10 µM (UACC-62): 32.2%; inhibition at 10 µM (OVCAR-5): < 10%; inhibition at 10 µM (OVCAR-8): 28.6%; inhibition at 10 µM (786-0): 11.3%; inhibition at 10 µM (A498): 13.4%; inhibition at 10 µM (ACHN): 24.8%; inhibition at 10 µM (RXF 393): 24.9%; inhibition at 10 µM (SN12C): 24.2%; inhibition at 10 µM (PC-3): 48.5%; inhibition at 10 µM (MCF-7): 30.5%; inhibition at 10 µM (MDA-MB-231-ATCC): 22.3%; inhibition at 10 µM (HS 578 T): 14.4%; inhibition at 10 µM (T-47D): 21.5%; inhibition at 10 µM (MDA-MB-468): 17.8%; melting point: 185 to 187 °C

Reference: article PMC9848257, “Design and synthesis of novel rigid dibenzo[b,f]azepines through ring closure technique as promising anticancer candidates against leukaemia and acting as selective topoisomerase II inhibitors and DNA intercalators” (Journal of Enzyme Inhibition and Medicinal Chemistry, 2023)
